The target of one assay is T1, dopamine (DA) uptake (Rattus norvegicus, UniProt P23977).
T1 construct: from tissue; host or cells: rat striatal synaptosomes
Description: [3H]dopamine uptake into rat striatal synaptosomes. It counts as biochemical. Here is the method: Inhibition of serotonin (5-HT), dopamine (DA) and noradrenaline (NA) uptake in vitro was measured in rat brain synaptosomes using a modification of a previously described protocol (Bøgesø et al., J Med Chem 1985, 28, 1817-1828). In brief, tritium labelled amines were used to measure uptake into synaptosomes from whole rat brain (excluding cerebellum) ([^3H]serotonin), rat striatal synaptosomes ([^3H]dopamine) or into rat cortical synaptosomes [^3H]noradrenalin. The dissected rat brain regions were homogenized in 0.40 M sucrose supplemented with 1 mM nialamid and centrifuged at 1000×g for 10 min. The supernatants were further centrifuged for 30 min at 20.000×g, 4° C. and resuspended in Krebs-Ringer buffer, pH 7.4 supplemented with 0.2 g/l ascorbic acid. Test compounds and membranes were added in 96 well plates and the incubation was started by adding either 10 nM [^3H]serotonin, 12.5 nM [^3H]dopamine or 10 nM [^3H]noradrenalin for 15 min at 37° C. except for [^3 H]dopamine uptake (5 min at 20° C.). Non-specific uptake was defined as uptake in the presence of 10 μM citalopram, 100 μM benttropin or 20 μM talsupram, respectively and accounted for 5-10% of total uptake. Samples were filtered over Whatman GF/C filters and the IC50's were estimated using non-linear regression analysis from at least 8 points dose-response curves with triplicate determinations.

Another assay addresses T2, human GlyT-1B (Homo sapiens, UniProt P48067).
T2 construct: expressed in transfected cells; host or cells: CHO cells
T2 sequence (P48067 1-652 isoform P48067-3): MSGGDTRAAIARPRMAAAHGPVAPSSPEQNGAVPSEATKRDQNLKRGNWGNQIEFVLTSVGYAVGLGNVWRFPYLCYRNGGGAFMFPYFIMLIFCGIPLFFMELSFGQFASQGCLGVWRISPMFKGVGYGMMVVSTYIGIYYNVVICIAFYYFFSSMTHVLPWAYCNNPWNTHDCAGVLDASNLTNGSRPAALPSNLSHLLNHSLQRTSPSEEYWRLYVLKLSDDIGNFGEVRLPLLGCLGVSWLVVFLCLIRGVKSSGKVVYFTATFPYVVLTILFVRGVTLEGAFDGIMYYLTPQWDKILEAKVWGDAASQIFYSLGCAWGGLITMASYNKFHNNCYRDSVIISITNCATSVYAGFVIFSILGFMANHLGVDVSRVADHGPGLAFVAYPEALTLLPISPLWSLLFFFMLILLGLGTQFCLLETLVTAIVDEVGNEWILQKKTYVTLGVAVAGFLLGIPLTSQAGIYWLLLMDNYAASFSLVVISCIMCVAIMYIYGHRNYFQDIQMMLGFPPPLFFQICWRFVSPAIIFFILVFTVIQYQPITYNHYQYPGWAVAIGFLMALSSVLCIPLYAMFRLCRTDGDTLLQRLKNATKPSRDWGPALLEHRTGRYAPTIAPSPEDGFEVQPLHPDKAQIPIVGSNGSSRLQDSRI
Description: [3H]-glycine uptake into CHO cells expressing human GlyT-1B. It counts as cell-based. Here is the method:
Measurements of [^3H]-glycine uptake into CHO cells expressing human GlyT-1B were performed in 96 well plates using 1 μCi [^3H]-glycine/well. Cells were plated 2 days before the experiment and washed twice with assay buffer (composition: 150 mM NaCl, 10 mM glucose, 2.5 mM KCl, 1 mM CaCl2, 2.5 mM MgSO4, 10 mM HEPES, pH 7.4). Test compounds were added 10 min before radioligand and cells were incubated for a further 15 min at 37° C. Cells were washed as described for [3 H]-D-serine uptake into asc-1 cells. Non-specific uptake was defined as uptake in the presence of 100 μM N-methyl-N-(phenyl-trifluoromethylphenoxy)propan-1-yl-glycine.

The structures appear in SMILES notation. pKi: −log10 of the molar value. A value given as a limit tells only on which side of the number the result lay.

T1 sequence (P23977 whole entry): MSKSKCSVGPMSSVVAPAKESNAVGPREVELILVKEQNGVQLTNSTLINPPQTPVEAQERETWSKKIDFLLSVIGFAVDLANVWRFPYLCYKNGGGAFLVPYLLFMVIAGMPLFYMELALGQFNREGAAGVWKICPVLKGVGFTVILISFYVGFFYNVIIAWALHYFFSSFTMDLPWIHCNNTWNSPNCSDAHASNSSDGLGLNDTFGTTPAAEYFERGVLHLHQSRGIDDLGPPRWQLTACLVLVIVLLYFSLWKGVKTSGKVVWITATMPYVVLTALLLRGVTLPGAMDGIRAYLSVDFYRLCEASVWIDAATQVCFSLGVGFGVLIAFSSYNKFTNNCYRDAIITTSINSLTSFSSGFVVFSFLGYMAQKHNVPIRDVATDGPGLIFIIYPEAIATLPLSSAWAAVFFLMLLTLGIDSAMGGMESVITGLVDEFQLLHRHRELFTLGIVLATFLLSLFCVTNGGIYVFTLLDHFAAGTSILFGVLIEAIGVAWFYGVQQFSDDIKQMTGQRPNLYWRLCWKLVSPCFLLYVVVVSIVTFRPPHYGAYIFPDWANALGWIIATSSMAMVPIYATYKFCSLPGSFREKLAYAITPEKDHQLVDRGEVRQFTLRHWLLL

In the case of `CSCC(N)C(=O)O` (stereo in doubt) [(S)-methyl-L-cysteine], the negative-log Ki (pKi) (commonly −log10 of the Ki, conventionally taken in molar units) at dopamine (DA) uptake was less than 3.00; at human GlyT-1B it was less than 4.00.

These data come from US20050176826A1, “Use of asc-1 inhibitors to treat neurological and psychiatric disorders” (H. Lundbeck A/S, priority 2002, published 2005).
